Patent US20210278408A1, “METHODS OF TREATMENT OF CANCER WITH SUBSTITUTED PYRROLE AND PYRAZOLE COMPOUNDS AND DIAGNOSIS OF CANCERS SUSCEPTIBLE TO TREATMENT WITH SUBSTITUTED PYRROLE AND PYRAZOLE COMPOUNDS” (Bantam Pharmaceutical, LLC, priority 2018, published 2021)
Where two headings read alike, the source gives them in different places.

System: BJAB (malignant human B-cell-line)
Experiment: BJAB cell proliferation
Format: cell-based
Parameters: scale not given here
Source text: In certain embodiments, the therapeutic compound is one of the compounds of the compound table below. […] In certain embodiments, the therapeutic compound is a compound having an activity as “A,” “B” or “C” in the table below. In certain embodiments, the therapeutic compound is a compound having an activity as “A” or “B” in the table below. In certain embodiments, the therapeutic compound is a compound having an activity as “A” in the table below.
In certain embodiments, the therapeutic compound is one of the compounds of the compound table below, optionally provided as a pharmaceutically-acceptable salt or N-oxide, and/or a solvate or hydrate. […] In certain embodiments, the therapeutic compound is a compound having an activity as “A,” “B” or “C” in the table below. In certain embodiments, the therapeutic compound is a compound having an activity as “A” or “B” in the table below. In certain embodiments, the therapeutic compound is a compound having an activity as “A” in the table below.

[1] = BJAB (malignant human B-cell-line) cell proliferation, EC50, read-out: BJAB

Row | SMILES | EC50 [1] [µM] | also measured
1 | Cc1nn(-c2nc(N3CCN(C4CC4)CC3)c(SC(C)C)s2)c(C(=O)O)c1-c1cccc(F)c1 [Compound B25, 1-(4-(4-cyclopropylpiperazin-1-yl)-5-(isopropylthio)thiazol-2-yl)-4-(3-fluorophenyl)-3-methyl-1H-pyrazole-5-carboxylic acid] | 5 to 10 | 
2 | COc1ccc(-c2sc(-n3nc(C)c(-c4cccc(F)c4)c3C(=O)O)nc2-c2ccc(C(F)(F)F)cc2)cc1 [Compound B45, 4-(3-fluorophenyl)-1-(5-(4-methoxyphenyl)-4-(4-(trifluoromethyl)phenyl)thiazol-2-yl)-3-methyl-1H-pyrazole-5-carboxylic acid] | < 1 | 
3 | COCCOc1ccc(-c2sc(-n3nc(C)c(-c4cccc(F)c4)c3C(=O)O)nc2-c2ccc(C(F)(F)F)cc2)cc1 [Compound B65, 4-(3-fluorophenyl)-1-(5-(4-(2-methoxyethoxy)phenyl)-4-(4-(trifluoromethyl)phenyl)thiazol-2-yl)-3-methyl-1H-pyrazole-5-carboxylic acid] | 1 to 5 | 
4 | Cc1nn(-c2nc(-c3ccc(C#N)cc3)c(SC(C)C)s2)c(C(=O)O)c1-c1cccc(F)c1 [Compound A213, 1-(4-(4-cyanophenyl)-5-(isopropylthio)thiazol-2-yl)-4-(3-fluorophenyl)-3-methyl-1H-pyrazole-5-carboxylic acid] |  | EC50 (BJAB cell proliferation): C-
5 | Cc1nn(-c2nc(-c3ccc(Cl)c(Cl)c3)n(CC(C)C)n2)c(C(=O)O)c1-c1cccc(F)c1 [Compound B16, 1-(5-(3,4-dichlorophenyl)-1-isobutyl-1H-1,2,4-triazol-3-yl)-4-(3-fluorophenyl)-3-methyl-1H-pyrazole-5-carboxylic acid] | > 20 | 
6 | Cc1nn(-c2nc(N3CCC(F)(F)CC3)c(SC(C)C)s2)c(C(=O)O)c1-c1cccc(F)c1 [Compound B18, 1-(4-(4,4-difluoropiperidin-1-yl)-5-(isopropylthio)thiazol-2-yl)-4-(3-fluorophenyl)-3-methyl-1H-pyrazole-5-carboxylic acid] | 1 to 5 | 
7 | COCCNC(=O)CCc1sc(-n2nc(C)c(-c3cccc(F)c3)c2C(=O)O)nc1-c1ccc(C(F)(F)F)cc1 [Compound B53, 4-(3-fluorophenyl)-1-(5-(3-((2-methoxyethyl)amino)-3-oxopropyl)-4-(4-(trifluoromethyl)phenyl)thiazol-2-yl)-3-methyl-1H-pyrazole-5-carboxylic acid] | > 20 | 
8 | Cc1nn(-c2nc(-c3ccc(C(F)(F)F)cc3)c(-c3ccc(C(F)(F)F)cc3)s2)c(C(=O)O)c1-c1cccc(F)c1 [Compound B38, 1-(4,5-bis(4-(trifluoromethyl)phenyl)thiazol-2-yl)-4-(3-fluorophenyl)-3-methyl-1H-pyrazole-5-carboxylic acid] | < 1 | 
9 | Cc1cc(C(=O)O)n(-c2nc(-c3ccc(Cl)cc3OC3COC3)c(SC(C)C)s2)n1 [Compound B1, 1-(4-(4-chloro-2-(oxetan-3-yloxy)phenyl)-5-(isopropylthio)thiazol-2-yl)-3-methyl-1H-pyrazole-5-carboxylic acid] | > 40 | 
10 | Cc1nn(-c2nc(-c3ccc(Cl)c(Cl)c3)c(SC(C)C)s2)c(C(=O)O)c1Cc1ccccc1NS(=O)(=O)N(C)C [Compound A122, 1-(4-(3,4-dichlorophenyl)-5-(isopropylthio)thiazol-2-yl)-4-(2-(N,N-dimethylsulfamoylamino)benzyl)-3-methyl-1H-pyrazole-5-carboxylic acid] |  | EC50 (BJAB cell proliferation, read-out: EC50): 10 to 25 µM
11 | COC(C)c1sc(-n2nc(C)c(-c3cccc(F)c3)c2C(=O)O)nc1-c1ccc(C(F)(F)F)cc1 (stereo not drawn) [Compound B66, 4-(3-fluorophenyl)-1-(5-(1-methoxyethyl)-4-(4-(trifluoromethyl)phenyl)thiazol-2-yl)-3-methyl-1H-pyrazole-5-carboxylic acid] | 5 to 10 | 
12 | Cc1nn(-c2nc(N3CCC(C(F)(F)F)CC3)c(SC(C)C)s2)c(C(=O)O)c1-c1cccc(F)c1 [Compound B12, 4-(3-fluorophenyl)-1-(5-(isopropylthio)-4-(4-(trifluoromethyl)piperidin-1-yl)thiazol-2-yl)-3-methyl-1H-pyrazole-5-carboxylic acid] | < 1 | 
13 | Cc1cc(-c2cn(-c3nc(-c4ccc(Cl)c(Cl)c4)c(SC(C)C)s3)nc2C)cc(C)n1 [Compound B9, 4-(3,4-dichlorophenyl)-2-(4-(2,6-dimethylpyridin-4-yl)-3-methyl-1H-pyrazol-1-yl)-5-(isopropylthio)thiazole] |  | BJAB (BJAB (malignant human B-cell-line) cell proliferation, EC50): A, C, L
14 | COc1ccc(-c2nc(-n3nc(C)c(-c4cccc(F)c4)c3C(=O)O)sc2-c2ccc(C(F)(F)F)cc2)cc1 [Compound B43, 4-(3-fluorophenyl)-1-(4-(4-methoxyphenyl)-5-(4-(trifluoromethyl)phenyl)thiazol-2-yl)-3-methyl-1H-pyrazole-5-carboxylic acid] | 1 to 5 | 
15 | Cc1nn(-c2nc(-c3ccc(Cl)c(Cl)c3)nn2CC(C)C)c(C(=O)O)c1-c1cccc(F)c1 [Compound B17, 1-(3-(3,4-dichlorophenyl)-1-isobutyl-1H-1,2,4-triazol-5-yl)-4-(3-fluorophenyl)-3-methyl-1H-pyrazole-5-carboxylic acid] | > 20 | 
16 | Cc1nnc(-c2ccc(-c3nc(-n4nc(C)c(-c5cccc(F)c5)c4C(=O)O)sc3SC(C)C)cc2)o1 [Compound B3, 4-(3-fluorophenyl)-1-(5-(isopropylthio)-4-(4-(5-methyl-1,3,4-oxadiazol-2-yl)phenyl)thiazol-2-yl)-3-methyl-1H-pyrazole-5-carboxylic acid] | 25 to 50 | 
17 | CCOCCOCCOc1ccc(-c2sc(-n3nc(C)c(-c4cccc(F)c4)c3C(=O)O)nc2-c2ccc(C(F)(F)F)cc2)cc1 [Compound B58, 1-(5-(4-(2-(2-ethoxyethoxy)ethoxy)phenyl)-4-(4-(trifluoromethyl)phenyl)thiazol-2-yl)-4-(3-fluorophenyl)-3-methyl-1H-pyrazole-5-carboxylic acid] | 1 to 5 | 
18 | COc1cc(Cl)cc(-c2c(C)nn(-c3nc(-c4ccc(C(F)(F)F)cc4)c(SC(C)C)s3)c2C(=O)O)c1 [Compound A222, 4-(3-chloro-5-methoxyphenyl)-1-(5-(isopropylthio)-4-(4-(trifluoromethyl)phenyl)thiazol-2-yl)-3-methyl-1H-pyrazole-5-carboxylic acid] |  | EC50 (Homo sapiens, BJAB cell proliferation, read-out: EC50): < 1 µM
19 | Cc1nn(-c2nc(N3CCC(C(F)(F)F)C3)c(SC(C)C)s2)c(C(=O)O)c1-c1cccc(F)c1 (stereo not drawn) [Compound B34, 4-(3-fluorophenyl)-1-(5-(isopropylthio)-4-(3-(trifluoromethyl)pyrrolidin-1-yl)thiazol-2-yl)-3-methyl-1H-pyrazole-5-carboxylic acid] | 1 to 5 | 
20 | Cc1nn(-c2nc(N3CCC(C#N)CC3)c(SC(C)C)s2)c(C(=O)O)c1-c1cccc(F)c1 [Compound B24, 1-(4-(4-cyanopiperidin-1-yl)-5-(isopropylthio)thiazol-2-yl)-4-(3-fluorophenyl)-3-methyl-1H-pyrazole-5-carboxylic acid] | 10 to 25 | 
21 | Cc1nn(-c2nc(N3CCC(C)CC3)c(SC(C)C)s2)c(C(=O)O)c1-c1cccc(F)c1 [Compound B28, 4-(3-fluorophenyl)-1-(5-(isopropylthio)-4-(4-methylpiperidin-1-yl)thiazol-2-yl)-3-methyl-1H-pyrazole-5-carboxylic acid] | 1 to 5 | 
22 | Cc1nn(-c2nc(-c3cccc(F)c3)c(-c3ccc(C(F)(F)F)cc3)s2)c(C(=O)O)c1-c1cccc(F)c1 [Compound B62, 4-(3-fluorophenyl)-1-(4-(3-fluorophenyl)-5-(4-(trifluoromethyl)phenyl)thiazol-2-yl)-3-methyl-1H-pyrazole-5-carboxylic acid] | 5 to 10 | 
23 | CC(C)=Cc1sc(-n2nc(C)c(-c3cccc(F)c3)c2C(=O)O)nc1-c1ccc(C(F)(F)F)cc1 [Compound B36, 4-(3-fluorophenyl)-3-methyl-1-(5-(2-methylprop-1-en-1-yl)-4-(4-(trifluoromethyl)phenyl)thiazol-2-yl)-1H-pyrazole-5-carboxylic acid] | < 1 | 
24 | Cc1nn(-c2nc(N3CCC(C(C)C)CC3)c(SC(C)C)s2)c(C(=O)O)c1-c1cccc(F)c1 [Compound B67, 4-(3-fluorophenyl)-1-(4-(4-isopropylpiperidin-1-yl)-5-(isopropylthio)thiazol-2-yl)-3-methyl-1H-pyrazole-5-carboxylic acid] | 1 to 5 | 
25 | COCCOCC(=O)Nc1ccc(-c2sc(-n3nc(C)c(-c4cccc(F)c4)c3C(=O)O)nc2-c2ccc(C(F)(F)F)cc2)cc1 [Compound B52, 4-(3-fluorophenyl)-1-(5-(4-(2-(2-methoxyethoxy)acetamido)phenyl)-4-(4-(trifluoromethyl)phenyl)thiazol-2-yl)-3-methyl-1H-pyrazole-5-carboxylic acid] | 10 to 25 | 
26 | Cc1nn(-c2nc(-c3ccc(C(F)(F)F)cc3)c(-c3cccc(F)c3)s2)c(C(=O)O)c1-c1cccc(F)c1 [Compound B59, 4-(3-fluorophenyl)-1-(5-(3-fluorophenyl)-4-(4-(trifluoromethyl)phenyl)thiazol-2-yl)-3-methyl-1H-pyrazole-5-carboxylic acid] | < 1 | 
27 | Cc1nn(-c2nc(C3=CCC4(CC3)OCCO4)c(SC(C)C)s2)c(C(=O)O)c1-c1cccc(F)c1 [Compound B7, 4-(3-fluorophenyl)-1-(5-(isopropylthio)-4-(1,4-dioxaspiro[4.5]dec-7-en-8-yl)thiazol-2-yl)-3-methyl-1H-pyrazole-5-carboxylic acid] | 25 to 50 | 
